The subject of test [1] is human neuroblastoma cells (SH-SY5Y). Description: Dopamine release by SH-SY5Y cells after 3-minute stimulation with trans-pellitorine (Dopamin-ELISA, normalized to DNA). The test is classed as cell-based. The note with it: for Dopamine release T/C [%]: relative to EtOH control, 3 min stimulation. On the procedure: (§1) The cell model used for the release of the neurotransmitters dopamine and serotonin are human neuroblastoma cells (SH-SY5Y, ATCC Number CRL-2266). Cultivation is performed at 37° C. and with a 5% CO2 content using a mixture containing at equal parts Eagle's Minimum Essential Medium (MEM) and F12 Medium (each having 10% FBS and 1% Penicillin/Streptomycin). To measure the release of dopamine and serotonin, the cells are harvested with trypsin and seeded, after a vitality check using trypan blue tests, in a defined cell number in 35 mm cell culture dishes.
After a 3-minute stimulation of 1.25*10^6 of human neuroblastoma cells (SH-SY5Y) with 350 μL Krebs-Ringer-HEPES Puffer (1), pH 5, with or without the addition of trans-pellitorine (2) in concentrations of 0.001 μM, 0.1 μM, 1 μM and 10 μM the supernatant is acidified with 1 N HCl and the dopamine content is determined by means of an enzyme-based method of detection (Dopamin-ELISA, DLD Diagnostica, Hamburg, Germany). The cells are lysed with a buffer containing sodium lauryl sarcosinate and the DNAN content is determined by means of a NanoQuant plant (Tecan, Ménnendorf, Switzerland) for normalization of dopamine release. During an ethanol control (EtOH control) no trans-pellitorine is added to the Krebs-Ringer-HEPES buffer, but ethanol is added to the buffer such that a 0.1% ethanolic Krebs-Ringer-HEPES buffer solution is obtained.
FIG. 2 represents the release of dopamin after incubation with t-pellitorine (2) in concentrations of 0.001 μM, 0.1 μM, 1 μM and 10 μM. The results are represented in a […] expressed in percent (buffer with 0.1% ethanol). n=3, tR=2. Significant differences between the treatments and control were tested using a one-way ANOVA with a subsequent Holm-Sidak post hoc test and marked according to the following pattern: *p≦0.05; **p.≦0.01; ***p≦0.001.

Test [2] relates to 3T3-L1 cells. Description: Fatty acid uptake (BODIPY fatty acid) in 3T3-L1 adipocytes. The test is classed as cell-based, murine. Particulars: for Fatty acid uptake T/C [%]: 30 min preincubation, area below the curve over 60 min vs ethanol control. The method, then:
(§2) The cell model used for short-term uptake of free fatty acids and long-term lipid accumulation in the adipocytes are murine fibroblasts (3T3-L1, ATTC Number CL-173) after the cells differentiated to form adipocytes. 3T3-L1 fibroblasts are cultivated at 37° C. and a 5% CO2 content with Dulbecco's Modified Eagle Medium (DMEM) having 10% FBS, 4% L-Glutamin and 1% Penicillin/Streptomycin (=basal medium). Adipocyte differentiation occurs two days after reaching confluence by adding 10 μg/L Insulin, 1 μM dexamethasone and 0.5 mM Isobutylmethylxanthin into the culture medium (=differentiation medium). After two days of cultivation in differentiation medium the adipocytes are allowed to mature for two further days by adding 10 μg/L insulin into the culture medium (=maturation medium). After having spent between three and five days in basal medium, the adipocytes are optimally differentiated and show by inclusion of lipid droplets the phenotype that is typical for adipocytes. Human colon cell line CaCo-2 (ATCC Number HTB-37) is used as a cell model for the uptake of free fatty acids by the small intestine after they have differentiated to form a phenotype corresponding to enterocytes. CaCo-2 cells are cultivated at 37° C. with a 5% CO2 content with Dulbecco's Modified Eagle Medium (DMEM) with 10% FBS, 2% L-glutamin and 1% penicillin/streptomycin. Enterocyte differentiation is performed by cultivating the cells in a period of 18 days after they reach confluence.
After differentiation of 3T3-L1 fibroblasts to form adipocytes, 65000 cells per well are seeded in a 96 well plate and incubated at 37° C. for four hours with basal medium (DMEM+10% fetal bovine serum) and then incubated for an hour with serum-free medium. The cells were pre-treated with 0.1 μM, 1 μM and 10 μM t-pellitorine for 30 minutes. The uptake of free fatty acids into the cells was measured by means of the fluorescence-marked fatty acid BODIPY® (QBT Fatty Acid Uptake Corporation, Germany) with a fluorescence microplate reading device (Tecan, Ménnendorf, Switzerland) every 20 seconds for a period of 60 minutes.
The results are represented as an area below the curve after measuring of 60 minutes in comparison with control (1, buffer with 0.1% Ethanol). n=3, tR=2-3. Significant differences between the treatment and control were tested by means of an one-way ANOVA followed by a Holm-Sidak post hoc test and marked according to the following pattern: *p≦0.05; **p.≦0.01; ***p≦0.001

Test [3] deals with 3T3-L1 cells. Description: Long time lipid accumulation (Oil-Red O) in 3T3-L1 adipocytes. The class given is cell-based, murine. The note with it: 10 days treatment, vs ethanol control. On the procedure:
as §2, with “confluence. After differentiation of the 3T3-L1 fibroblasts to form adipocytes the cells are treated for 10 days with trans-pellitorine in concentrations of 0.001 μM, μM 0.1 μM, 1 μM and 10 μM and a final concentration of 10 μg/L insulin. […] The dye Oil-Red 0 is subsequently removed by means of 100% isopropanol, and absorption of the Oil-Red 0 solution, which behaves proportionally to the lipid droplets of the cells, was determined by means of a microplate reading device (Tecan, Ménnendorf, Switzerland). […]” for “confluence.”

Test [4] concerns differentiated CaCo-2 cells. Description: Fatty acid uptake (BODIPY fatty acid) in differentiated CaCo-2 cells. The test is classed as cell-based, human. The note with it: for Fatty acid uptake T/C [%]: 30 min preincubation, area below the curve over 60 min vs ethanol control. The method, then: as §2, with “confluence. After differentiation of the CaCo-2 cells to form an enterocyte phenotype, the cells are incubated with serum-free medium for an hour. Subsequently the cells are pre-treated with 0.1 μM, 1 μM and 10 μM t-pellitorine for 30 minutes and the free fatty acid uptake into the cells was measured by means of the fluorescence marked fatty acid BODIPY® (QBT Fatty Acid Up-take Corporation, Germany) at a fluorescence microplate reading device (Tecan, Ménnendorf, Switzerland) every 20 seconds for a period of 60 minutes. […] The results are represented as an area below the curve after measuring for 60 minutes in comparison to control (1, buffer with 0.1% ethanol). n=3, tR=2-3. Significant differences between the treatment and control were tested by means of a one-way ANOVA followed by a Holm-Sidak post hoc test and marked according to the following pattern: *p≦0.05; **p.≦0.01; ***p≦0.001” for “confluence.”

Test [5] relates to human neuroblastoma cells (SH-SY5Y). Description: Serotonin release by SH-SY5Y cells after 3-minute stimulation with alkamides (Serotonin-ELISA, normalized to DNA). The test is classed as cell-based. The note with it: for Serotonin release T/C [%]: relative to EtOH control, 3 min stimulation. On the procedure:
as §1
After a 3-minute stimulation of 1.25*10^6 human neuroblastoma cells (SH-SY5Y) with 300 μL Krebs-Ringer-HEPES buffer, 0.1% ascorbic acid, pH 6.2, with, or without, the addition of an alkamide (trans-Pellitorine, dihydropellitorine, spilanthol, wherein when adding the alkamide in concentrations of 0.001 μM, 0.1 μM 1 μM and 10 μM within the Krebs-Ringer-HEPES buffer is adjusted), the serotonin content is detected by means of an enzyme-based method of detection (Serotonin-ELISA sensitive, DLD Diagnostica, Hamburg, Germany). The cells are lysed with a buffer containing sodium lauryl sarcosinate and the DNA content is detected by means of a NanoQuant plate (Tecan, Ménnendorf, Switzerland) to normalize serotonin release.
FIGS. 1a and 1b represent the release of serotonin after incubation with t-pellitorine (2) (FIG. 1A) in concentrations of 0.001 μM, 0.1 μM, 1 μM and 10 μM or other alkamides (FIG. 1B: 1=t-pellitorine, 2=dihydropellitorine, 3=spilanthol)). Results are represented in % relative to control (buffer with 0.1% ethanol) n=3, tR=2. Significant differences of control treatment were tested using a one-way ANOVA with a subsequent Holm-Sidak post hoc test and marked according to the following pattern: *p≦0.05; **p.≦0.01; ***p≦0.001.

Experimental findings from patent US9468225B2, “Oral compositions” (Symrise AG, priority 2013, dated 2016) are described below.

In the case of `CCCCC/C=C/C=C/C(=O)NCC(C)C` [trans-pellitorine, 2E,4E-decadienic acid-N-isobutylamide], the “Dopamine release T/C [%]” value in test [1] (0.001 μM) was determined as 99.68%; in test [1] (0.1 μM) it was 182.7%; in test [1] (1 μM), 106.8%; in test [1] (10 μM), 127.3%. The “increase of dopamine release” value in test [1] (100 nM, SH-SY5Y cells) worked out at 80%. Besides, the “Fatty acid uptake T/C [%]” value was 93.84% with 3T3-L1 cells [2] (0.1 μM); 96.63% with 3T3-L1 cells [2] (1 μM); 91.95% in the test with 3T3-L1 cells [2] (10 μM); 107.8% in test [4] (0.1 μM); 98.7% in test [4] (1 μM); 97.8% in test [4] (10 μM). For the same molecule, the “Fatty acid uptake T/C [%]” value in test [4] (100 μM) came out at 86.0%. The “reduction of fatty acid uptake in adipocytes” value in the test on 3T3-L1 cells [2] (preincubation with 10 μM) is given as 9%. The “Lipid accumulation T/C [%]” value in the test on 3T3-L1 cells [3] (0.001 μM) came to 94.60%; in the test on 3T3-L1 cells [3] (0.1 μM), 92.94%; in the test with 3T3-L1 cells [3] (1 μM), 93.46%. Further, the “reduction of free fatty acid uptake in an enterocyte model” value in test [4] (preincubation with 100 μM, 30 minutes) worked out at 14%. For the same molecule, the “Serotonin release T/C [%]” value in test [5] (0.001 μM) is on record as 105.3%; in test [5] (0.1 μM) it was 140.2%; in test [5] (1 μM), 128.8%; in test [5] (10 μM) it was 93.02%. The “increase of the release of serotonin” value in test [5] (100 nM, SH-SY5Y cells) came to 40%.
`C/C=C/C=C\CC/C=C/C(=O)NCC(C)C` [Spilanthol, 2E,6Z,8E-decatrienoic acid N-isobutylamide]: the “Serotonin release T/C [%]” value in test [5] (0.001 μM) is 105.6%; in test [5] (0.1 μM), 129.9%; in test [5] (1 μM), 103.8%; in test [5] (10 μM), 91.77%.
The matching figures for `CCCCCCC/C=C/C(=O)NCC(C)C` [Dihydropellitorine, 2E-decenoic acid-N-isobutylamide]: 140.9%, 87.41%, 124.3% and 144.5%.
